Test results published in patent US12187709B2 (Genentech, Inc., priority 2021, dated 2025).

How the values were obtained:
[1] = target: c-Cbl (residues 47-435) (Homo sapiens (Human), UniProt P22681); assay: c-Cbl SPR assay; type: binding; conditions: 20° C.
In short: (§1)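 Binding is measured by surface plasmon resonance against both isoforms, with double referencing and 1:1 kinetic fitting. Dissociation time is tuned to 4-5 half-lives.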

[2] = target: Cbl-b (Homo sapiens (Human), UniProt Q13191); assay: Cbl-b LCK Ub TR-FRET assay (Cbl-b Lck HTRF); type: biochemical; conditions: for IC50: Cbl-b LCK Ub TR-FRET; for fold-selectivity (Cbl-b over C-cbl): ratio C-cbl Lck HTRF IC50 / Cbl-b Lck HTRF IC50
Cbl-b, sequence (Q13191 40-426): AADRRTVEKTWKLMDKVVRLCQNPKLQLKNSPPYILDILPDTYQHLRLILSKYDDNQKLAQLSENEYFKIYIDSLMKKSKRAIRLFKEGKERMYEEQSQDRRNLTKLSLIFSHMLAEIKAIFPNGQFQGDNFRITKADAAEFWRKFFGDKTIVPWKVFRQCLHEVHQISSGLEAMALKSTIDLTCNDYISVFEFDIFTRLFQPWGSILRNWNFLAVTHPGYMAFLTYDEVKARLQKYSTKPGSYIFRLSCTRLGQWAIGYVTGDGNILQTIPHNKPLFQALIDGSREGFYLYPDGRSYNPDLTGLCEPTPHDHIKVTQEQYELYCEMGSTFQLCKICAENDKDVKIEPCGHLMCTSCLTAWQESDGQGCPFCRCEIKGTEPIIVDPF
In short: (§2)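 After the ubiquitination reaction, detection mixture was added and plates incubated 20 min at room temperature before reading. IC50 values were calculated with wells lacking LCK as the low control and DMSO as the high control.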

[3] = target: Human Cbl-b (residues 40-426) (Homo sapiens (Human), UniProt Q13191); assay: Cbl-b SPR assay; type: binding; conditions: for Fold of selectivity: C-cbl SPR Kd vs Cbl-b SPR Kd; for Kd: SPR, 20° C.
Human Cbl-b (residues 40-426), sequence (Q13191 40-426): as above
In short: as §1

[4] = target: c-Cbl (Homo sapiens (Human), UniProt P22681); assay: C-Cbl LCK Ub TR-FRET assay (C-cbl Lck HTRF); type: biochemical
c-Cbl, sequence (P22681 47-435): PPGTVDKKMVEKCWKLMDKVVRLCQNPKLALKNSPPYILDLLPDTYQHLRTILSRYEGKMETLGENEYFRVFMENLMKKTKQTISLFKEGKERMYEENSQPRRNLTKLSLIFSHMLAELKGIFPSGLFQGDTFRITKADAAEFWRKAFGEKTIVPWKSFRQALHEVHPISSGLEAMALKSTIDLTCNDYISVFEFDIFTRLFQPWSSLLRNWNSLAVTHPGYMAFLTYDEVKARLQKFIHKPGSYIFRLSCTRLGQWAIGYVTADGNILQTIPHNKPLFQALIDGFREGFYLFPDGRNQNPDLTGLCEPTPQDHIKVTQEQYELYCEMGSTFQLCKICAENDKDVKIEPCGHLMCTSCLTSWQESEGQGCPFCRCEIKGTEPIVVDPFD
In short: as §2

c-Cbl (residues 47-435), sequence (P22681 47-435): as above

| SMILES | Kd [1] [nM] | IC50 [2] [nM] | fold-selectivity (Cbl-b over C-cbl) [2] [x] | Fold of selectivity [3] [×] | Kd [3] [nM] | IC50 [4] [nM] |
| --- | --- | --- | --- | --- | --- | --- |
| Cn1cnnc1[C@H](c1cccc(N2Cc3c(cc(CNC4(C)CCC4)cc3C(F)(F)F)C2=O)c1)C1CCCC1 [Compound 257, (S)-2-(3-(cyclopentyl(4-methyl-4H-1,2,4-triazol-3-yl)methyl)phenyl)-6-(((1-methylcyclobutyl)amino)methyl)-4-(trifluoromethyl)isoindolin-1-one] | 3.7 | 22 | 1.2 | 5.7 | 0.65 | 27 |
| Cn1cnnc1[C@@H](c1cccc(N2Cc3c(cc(CNC4(C)CCC4)cc3C(F)(F)F)C2=O)c1)C1CCC1 [Compound 258, (R)-2-(3-(cyclobutyl(4-methyl-4H-1,2,4-triazol-3-yl)methyl)phenyl)-6-(((1-methylcyclobutyl)amino)methyl)-4-(trifluoromethyl)isoindolin-1-one] | 2200 | 170 | 5.8 | 13 | 170 | 970 |
| Cn1cnnc1[C@@H](c1cccc(N2Cc3c(cc(CNC4(C)CCC4)cc3C(F)(F)F)C2=O)c1)C1CC(OCC(F)F)C1 (stereo partly drawn) [Compound 260, 2-(3-((R)-((1r,3R)-3-(2,2-difluoroethoxy)cyclobutyl)(4-methyl-4H-1,2,4-triazol-3-yl)methyl)phenyl)-6-(((1-methylcyclobutyl)amino)methyl)-4-(trifluoromethyl)isoindolin-1-one] | 2200 | 450 | 5.4 | 8.8 | 590 | 2400 |
| Cn1cnnc1[C@@H](c1cccc(N2Cc3c(Cl)cc(CNC4(C)CCC4)cc3C2=O)c1)C1COC1 [Compound 270, (R)-4-chloro-2-(3-((4-methyl-4H-1,2,4-triazol-3-yl)(oxetan-3-yl)methyl)phenyl)-6-(((1-methylcyclobutyl)amino)methyl)-isoindolin-1-one] | 16 | 11 | 2.3 | 5.9 | 2.6 | 27 |
| Cn1cnnc1[C@]1(c2cccc(N3Cc4c(cc(CNC5(C)CCC5)cc4C(F)F)C3=O)c2)C[C@@H](F)C1 [Compound 272, 4-(difluoromethyl)-2-(3-((1r,3r)-3-fluoro-1-(4-methyl-4H-1,2,4-triazol-3-yl)cyclobutyl)phenyl)-6-(((1-methylcyclobutyl)amino)methyl)isoindolin-1-one] | 11 | 15 | 1.7 | 7.6 | 1.4 | 25 |
| CCNc1cc([C@]2(c3nncn3C)C[C@@H](C)C2)cc(N2Cc3c(cc(CNC4(C)CCC4)cc3C(F)F)C2=O)n1 [Compound 274, 4-(difluoromethyl)-2-(6-(ethylamino)-4-((1s,3s)-3-methyl-1-(4-methyl-4H-1,2,4-triazol-3-yl)cyclobutyl)pyridin-2-yl)-6-(((1-methylcyclobutyl)amino)methyl)isoindolin-1-one] | 0.2 | 7.5 | 0.91 | 2.0 | 0.1 | 6.9 |
| Cn1cnnc1[C@@H](C[C@H]1CCOC1)c1cccc(N2Cc3c(cc(CNC4(C)CCC4)cc3C(F)(F)F)C2=O)c1 [Compound 277, 2-(3-((S)-1-(4-methyl-4H-1,2,4-triazol-3-yl)-2-((S)-tetrahydrofuran-3-yl)ethyl)phenyl)-6-(((1-methylcyclobutyl)amino)methyl)-4-(trifluoromethyl)isoindolin-1-one] | 7700 | 3600 | 2.3 | 5.3 | 1400 | 8600 |
| Cn1cnnc1[C@H](C[C@H]1CCOC1)c1cccc(N2Cc3c(cc(CNC4(C)CCC4)cc3C(F)(F)F)C2=O)c1 [Compound 278, 2-(3-((R)-1-(4-methyl-4H-1,2,4-triazol-3-yl)-2-((S)-tetrahydrofuran-3-yl)ethyl)phenyl)-6-(((1-methylcyclobutyl)amino)methyl)-4-(trifluoromethyl)isoindolin-1-one] | 8600 | 5000 | 1.8 | 4.8 | 1800 | 8900 |
| Cn1cnnc1C1(c2cccc(N3Cc4c(cc(CNC5(C)CCC5)cc4C(F)(F)F)C3=O)c2)CCC1 [Compound 279, 2-(3-(1-(4-methyl-4H-1,2,4-triazol-3-yl)cyclobutyl)phenyl)-6-(((1-methylcyclobutyl)amino)methyl)-4-(trifluoromethyl)isoindolin-1-one] | 12 | 6.6 | 1.4 | 6.4 | 1.8 | 9.3 |
| Cn1cnnc1[C@]1(c2cccc(N3Cc4c(cc(CNC5(C)CCC5)cc4C(F)(F)F)C3=O)c2)C[C@H](OCC#N)C1 [Compound 280, 2-((1s,3s)-3-(4-methyl-4H-1,2,4-triazol-3-yl)-3-(3-(6-(((1-methylcyclobutyl)amino)methyl)-1-oxo-4-(trifluoromethyl)isoindolin-2-yl)phenyl)cyclobutoxy)acetonitrile] | 7.2 | 6.8 | 1.6 | 7.0 | 1.1 | 11 |
| Cn1cnnc1[C@]1(c2cccc(N3Cc4c(cc(CNC5(C)CCC5)cc4C(F)(F)F)C3=O)c2)C[C@@H](OCC#N)C1 [Compound 281, 2-((1r,3r)-3-(4-methyl-4H-1,2,4-triazol-3-yl)-3-(3-(6-(((1-methylcyclobutyl)amino)methyl)-1-oxo-4-(trifluoromethyl)isoindolin-2-yl)phenyl)cyclobutoxy)acetontrile] | 7 | 6.7 | 1.3 | 6.3 | 1.1 | 9.5 |
| Cn1cnnc1C1(c2cccc(N3Cc4c(cc(CNC5(C)CCC5)cc4C(F)(F)F)C3=O)c2)CCOCC1 [Compound 282, 2-(3-(4-(4-methyl-4H-1,2,4-triazol-3-yl)tetrahydro-2H-pyran-4-yl)phenyl)-6-(((1-methylcyclobutyl)amino)methyl)-4-(trifluoromethyl)isoindolin-1-one] | 2300 | 410 | 6.5 | 10 | 230 | 2800 |

The remaining lines, values ahead:

| Kd [1] [nM] | IC50 [2] [nM] | fold-selectivity (Cbl-b over C-cbl) [2] [x] | Fold of selectivity [3] [×] | Kd [3] [nM] | IC50 [4] [nM] | SMILES |
| --- | --- | --- | --- | --- | --- | --- |
| 220 | 81 | 2.7 | 5.3 | 43 | 220 | Cn1cnnc1C1(c2cccc(N3Cc4c(cc(CNC5(C)CCC5)cc4C(F)(F)F)C3=O)c2)CC1 [Compound 283, 2-(3-(1-(4-methyl-4H-1,2,4-triazol-3-yl)cyclopropyl)phenyl)-6-(((1-methylcyclobutyl)amino)methyl)-4-(trifluoromethyl)isoindolin-1-one] |
| 0.8 | 6 | 1.1 | 1.1 | 0.7 | 6.5 | C[C@H](NC1(C)CCC1)c1cc2c(c(C(F)(F)F)c1)CN(c1cccc(C(c3nncn3C)C3COC3)c1)C2=O (stereo partly drawn) [Compound 285] |
| 31 | 9.8 | 2.4 | 6.3 | 5 | 23 | Cn1cnnc1C1(c2cccc(N3Cc4c(cc(CNC5(C)CCC5)cc4C(F)(F)F)C3=O)c2)CCCC1 [Compound 292, 2-(3-(1-(4-methyl-4H-1,2,4-triazol-3-yl)cyclopentyl)phenyl)-6-(((1-methylcyclobutyl)amino)methyl)-4-(trifluoromethyl)isoindolin-1-one] |
| 200 | 64 | 3.0 | 4.0 | 53 | 190 | Cn1cnnc1C1(c2cccc(N3Cc4c(cc(CNC5(C)CCC5)cc4C(F)(F)F)C3=O)c2)CC2(C1)OCCO2 [Compound 293, 2-(3-(2-(4-methyl-4H-1,2,4-triazol-3-yl)-5,8-dioxaspiro[3.4]octan-2-yl)phenyl)-6-(((1-methylcyclobutyl)amino)methyl)-4-(trifluoromethyl)isoindolin-1-one] |
| 720 | 400 | 1.6 | 1.3 | 530 | 660 | Cn1cnnc1[C@H](C[C@H]1COCCO1)c1cccc(N2Cc3c(cc(CNC4(C)CCC4)cc3C(F)(F)F)C2=O)c1 [Compound 294, 2-(3-((R)-2-((S)-1,4-dioxan-2-yl)-1-(4-methyl-4H-1,2,4-triazol-3-yl)ethyl)phenyl)-6-(((1-methylcyclobutyl)amino)methyl)-4-(trifluoromethyl)isoindolin-1-one] |
| 5800 | 1300 | 1.8 | 2.0 | 2800 | 2300 | Cn1cnnc1[C@H](C[C@@H]1COCCO1)c1cccc(N2Cc3c(cc(CNC4(C)CCC4)cc3C(F)(F)F)C2=O)c1 [Compound 297, 2-(3-((R)-2-((R)-1,4-dioxan-2-yl)-1-(4-methyl-4H-1,2,4-triazol-3-yl)ethyl)phenyl)-6-(((1-methylcyclobutyl)amino)methyl)-4-(trifluoromethyl)isoindolin-1-one] |
